Reference: US10149852B2, “Use of sodium channel blockers for the treatment of neuropathic pain developing as a consequence of chemotherapy” (priority 2006, dated 2018)
Values joined by “and” are separate entries in the source; they are usually repeats but may differ in a detail not shown here. Equal values may be shown once. “Also recorded” adds a separate entry of the source.

Key:
[1] = test system: paclitaxel-induced mechanical allodynia
[2] = test system: paclitaxel-induced thermal hyperalgesia
[3] = test system: paclitaxel induced paw allodynia
[4] = test system: paclitaxel induced paw hyperalgesia
[5] = test system: paclitaxel-induced cold allodynia
[6] = test system: paclitaxel induced orofacial allodynia
[7] = in vivo; cited from earlier work
[8] = test system: paclitaxel-induced painful peripheral neuropathy; design: species or system CD-1 mice; settings: mouse, in vivo, sc
[9] = design: species or system Human Subjects; settings: in vivo
[10] = test system: Chemotherapy Induced Neuropathic Pain (CINP); design: species or system Human Subjects; settings: in vivo
[11] = paclitaxel 2 mg/kg i.p. once daily 5 days
[12] = paclitaxel 1 mg/kg i.p. days 1, 3, 5, 7, rats

CC(=O)O[C@H]1C(=O)[C@@]2(C)[C@H]([C@H](OC(=O)c3ccccc3)[C@]3(O)C[C@H](OC(=O)[C@H](O)[C@@H](NC(=O)c4ccccc4)c4ccccc4)C(C)=C1C3(C)C)[C@]1(OC(C)=O)CO[C@@H]1C[C@@H]2O [paclitaxel, Paclitaxel, reference compound]
induction of mechanical allodynia (threshold force, Von Frey test) ([1]; paclitaxel 2 mg/kg i.p. during 5 days, day 10): induced mechanical allodynia
animals showing a reduction of the mechanical threshold ([1]; paclitaxel-treated mice): 96%
time of maximal thermal hyperalgesia after the first injection [2, 11]: 7 days
paw withdrawal latency in the plantar test vs pre-treatment day ([2]; paclitaxel 2 mg/kg i.p. once daily 5 days, all post-treatment days): significantly reduced
animals that did not develop thermal hyperalgesia on day 7 ([2]; paclitaxel-treated mice): Around 9%
mechanical threshold (paw) vs vehicle-treated group [3, 12]: significantly reduced
thermal latency vs vehicle-treated group [4, 12]: significantly reduced
animals with increased time licking/biting (paclitaxel-responder animals) [5, 11]: 67%
time of maximal cold allodynia after the first injection [5, 11]: 10 to 14 days
mechanical threshold (orofacial) vs vehicle-treated group [6, 12]: significantly reduced

Octahydro-12-(Hydroxymethyl)-2-imino-5,9,7,10a-dimethano-10aH-[1,3]dioxocino[6,5-d]pyrimidine-4,7,10,11,12-pentol [TTX]
safety profile of the doses [7]: acceptable safety profile
analgesic effects in the model of neuropathic pain [8]: clear analgesic effects
effect of a single dose on allodynia in the sciatic territory ([3]; rat, in vivo, sc): partial but significant decrease
prevention of development of allodynia in the paw ([3]; rat, in vivo, sc): able to prevent the development
Nervous system disorders, number of subjects [9]: 13 and 16 and 17 and 20
Number of Subjects with at least 1 AE [9]: 21 and 22 and 20 and 24
Paresthesia, number of subjects [9]: 5 and 7
grade 4 AEs [9]: no grade 4 AEs
number of grade 3 AEs [9]: four and seven
number of patients with serious adverse effects (SAEs) [9]: Three
number of subjects with grade 3 AE [9]: Four
relation of the SAEs to TTX [9]: two unrelated and one unlikely related
severity of most AEs [9]: grade 1 or 2; also recorded: mild or moderate
severity of nervous system AEs [9]: grade 1 or 2 save for one event of grade 3 paresthesia
Hypesthesia oral, number of subjects ([9]; po): 5 and 7 and 6 and 10
Oral paresthesia (most common AE), number of patients of 125 ([9]; po): 37
Oral paresthesia (most common AE), percent ([9]; po): 29.6%
dose relation of Oral Paresthesia ([9]; po): increasing trend in relation to increasing dose
oral hypesthesia, number of patients of 125 ([9]; po): 31
oral hypesthesia, percent ([9]; po): 24.8%
Responders, 30% reduction in average NPRS score from baseline to any 10 consecutive days: No, number of subjects [10]: 17 (68.0%) and 14 (58.3%) and 15 (60.0%) and 11 (42.3%)
Responders, 30% reduction in average NPRS score from baseline to any 10 consecutive days: No, percent [10]: 17 (68.0%) and 14 (58.3%) and 15 (60.0%) and 11 (42.3%)
Responders, 30% reduction in average NPRS score from baseline to any week: No, number of subjects [10]: 16 (64.0%) and 13 (54.2%) and 15 (60.0%) and 11 (42.3%)
Responders, 30% reduction in average NPRS score from baseline to any week: No, percent [10]: 16 (64.0%) and 13 (54.2%) and 15 (60.0%) and 11 (42.3%)
Responders, 30% reduction in average NPRS score from baseline to any week: Yes, number of subjects [10]: 9 (36.0%) and 11 (45.8%) and 10 (40.0%) and 15 (57.7%)
effect of a single dose on paw hyperalgesia ([4]; rat, in vivo, sc): did not significantly reduce
prevention of development of hyperalgesia in the paw ([4]; rat, in vivo, sc): able to prevent the development
effect on expression of paclitaxel-induced cold allodynia ([5]; mouse, in vivo): inhibited the expression
days with statistically significant difference vs paclitaxel+saline, duration of licking/biting ([5]; mouse, in vivo, sc): days 10 and 14
days with statistically significant difference vs paclitaxel+saline, frequency of licking/biting ([5]; mouse, in vivo, sc): days 7, 10 and 14
effect on development of paclitaxel-induced cold allodynia (two variables) ([5]; mouse, in vivo, sc): did not significantly affect
effect significantly different from saline, frequency of licking/biting ([5]; mouse, in vivo, sc): only in the animals treated with TTX 6 μg/kg
time after injection with effect significantly different from saline, duration of licking/biting ([5]; mouse, in vivo, sc): 1 h
effect of a single dose on allodynia in the trigeminal territory ([6]; rat, in vivo, sc): partial but significant decrease
prevention of development of allodynia in the orofacial region ([6]; rat, in vivo, sc): able to prevent the development
